Converted amounts (≈) assume the structure as drawn.
Experiments:
[1] = tested on: Escherichia coli (E. coli) BAS849; experiment: Antibacterial activity, microbroth dilution MIC (Table 1); assay type: cell-based; conditions: microbroth dilution, super sensitive Gram-negative E. coli BAS849, read-out: MIC, BAS849
Summary of the method: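 Values are MICs (μg/mL): the smallest drug amount at which macroscopically visible bacterial growth is absent under assay conditions, from a microdilution method in broth.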

[2] = tested on: Staphylococcus aureus (S. aureus) 29213; experiment: as above; assay type: cell-based; conditions: microbroth dilution, Gram-positive S. aureus 29213, read-out: MIC, 29213
Summary of the method: (§1)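 Broth microdilution against S. aureus 29213, E. coli 25922 and hypersensitive E. coli BAS849. MIC in μg/mL is the lowest drug concentration preventing macroscopically visible growth under test conditions.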

E. coli 25922 = experiment: as above; assay type: cell-based, Escherichia coli; conditions: Escherichia coli; microbroth dilution; control Gram-negative E. coli 25922 strain; read-out: MIC, 25922
Summary of the method: as §1

E. coli LZ3111 = experiment: Antibacterial activity, MIC, quinolone resistant strain (Table 2); assay type: cell-based; conditions: Escherichia coli, LZ3111, read-out: MIC LZ3111
Summary of the method: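 Growth inhibition assessed by serial drug dilution in broth; endpoint was absence of macroscopically visible growth, reported as MIC, μg/mL.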

E. coli ELZ4000 = experiment: Antibacterial activity, MIC, multi-drug resistant clinical isolate (Table 3); assay type: cell-based; conditions: Escherichia coli, ELZ4000, read-out: MIC ELZ4000
Summary of the method: (§2)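 Values derive from a microbroth dilution method, taking as MIC (μg/mL) the lowest tested concentration without macroscopically visible growth.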

E. coli ELZ4251 = experiment: as above; assay type: cell-based; conditions: Escherichia coli
Summary of the method: as §2

[3] = tested on: Haemophilus influenzae (H. influenzae) 49247; experiment: Antibacterial activity, MIC (Table 6); assay type: cell-based
Text: (§3) The antibacterial activity from a microbroth dilution method may be presented as the minimum inhibitory concentration (MIC in μg/mL). The MIC value is the lowest concentration of drug which prevents macroscopically visible growth under test conditions.
(§4) Antibacterial activity of test compounds against the Gram-negative bacteria Haemophilus influenzae (H. influenzae) 49247 is shown in Table 6, Moraxella catarrhalis (M. catarrhalis) 25238 is shown in Table 7 and Neisseria meningitidis (N. meningitidis) 13090 is shown in Table 8.

[4] = tested on: Neisseria meningitidis (N. meningitidis) 13090; experiment: Antibacterial activity, MIC (Table 8); assay type: cell-based
Text: as §3, §4

[5] = tested on: Acinetobacter baumannii (A. baumannii) BAA747; experiment: Antibacterial activity, MIC (Table 4); assay type: cell-based; conditions: A. baumannii BAA747, read-out: MIC, BAA747
Summary of the method: (§5)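 Values are minimum inhibitory concentrations in μg/mL from broth microdilution, meaning no macroscopically visible growth at that concentration. Resistant MXX isolates are multi-drug resistant clinical strains.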

[6] = tested on: Klebsiella pneumoniae (K. pneumoniae) 35657; experiment: Antibacterial activity, MIC (Table 4); assay type: cell-based; conditions: K. pneumoniae 35657, read-out: MIC, 35657
Summary of the method: as §5

A. baumannii MXX2240 = experiment: Antibacterial activity, MIC, resistant strain (Table 4); assay type: cell-based; conditions: Acinetobacter baumannii, MXX2240; resistant A. baumannii MMX2240, multi-drug resistant clinical isolate; read-out: MIC, MMX2240
Summary of the method: as §5

K. pneumoniae MXX1232 = experiment: as above; assay type: cell-based; conditions: Klebsiella pneumoniae, MXX1232; resistant K. pneumoniae MMX1232, multi-drug resistant clinical isolate; read-out: MIC, MMX1232
Summary of the method: as §5

[7] = tested on: Pseudomonas aeruginosa (P. aeruginosa) 27853; experiment: Antibacterial activity, MIC (Table 5); assay type: cell-based; conditions: P. aeruginosa 27853, read-out: MIC, 27853
Summary of the method: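 Using a microbroth dilution format, the minimum inhibitory concentration was recorded as the lowest tested concentration that stopped visible bacterial growth, expressed in μg/mL.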

Row | SMILES | MIC [1] [mg/L] | MIC [2] [mg/L] | MIC (E. coli 25922) [mg/L] | MIC (E. coli LZ3111) [mg/L] | MIC (E. coli ELZ4000) [mg/L] | MIC (E. coli ELZ4251) [mg/L] | MIC [3] [mg/L] | MIC [4] [mg/L] | MIC [5] [mg/L] | MIC [6] [mg/L] | MIC (A. baumannii MXX2240) [mg/L] | MIC (K. pneumoniae MXX1232) [mg/L] | MIC [7] [mg/L]
1 | CCc1cc(C(=O)O)c(=O)[nH]c1-c1ccc2c(c1)cc(C)n2C [Cpd 37, 6-(1,2-dimethyl-1H-indol-5-yl)-5-ethyl-2-oxo-1,2-dihydropyridine-3-carboxylic acid] | < 1 | 1 to 3.5 (≈ 3.22 to 11.3 µM) | < 1 | 12.5 to 150 (≈ 40.3 to 483 µM) | 12.5 to 150 (≈ 40.3 to 483 µM) | 12.5 to 150 (≈ 40.3 to 483 µM) | < 1 | < 1 |  |  |  |  | 
2 | CCc1cc(C(=O)O)c(=O)[nH]c1-c1ccc2c(c1)cc(CN(C)C)n2C [Cpd 122, 6-(2-((dimethylamino)methyl)-1-methyl-1H-indol-5-yl)-5-ethyl-2-oxo-1,2-dihydropyridine-3-carboxylic acid] | < 1 | 12.5 to 150 (≈ 35.4 to 424 µM) | < 1 | 12.5 to 150 (≈ 35.4 to 424 µM) | 12.5 to 150 (≈ 35.4 to 424 µM) | 12.5 to 150 (≈ 35.4 to 424 µM) |  | < 1 | < 1 | < 1 | 12.5 to 150 (≈ 35.4 to 424 µM) | 12.5 to 150 (≈ 35.4 to 424 µM) | 3.5 to 12.5 (≈ 9.9 to 35.4 µM)
3 | CCc1cc(C(=O)O)c(=O)[nH]c1-c1ccc2c(c1)cc(CN1CCCC1)n2C [Cpd 124, 5-ethyl-6-(1-methyl-2-(pyrrolidin-1-ylmethyl)-1H-indol-5-yl)-2-oxo-1,2-dihydropyridine-3-carboxylic acid] | < 1 | 12.5 to 150 (≈ 32.9 to 395 µM) | < 1 | 12.5 to 150 (≈ 32.9 to 395 µM) | 12.5 to 150 (≈ 32.9 to 395 µM) | 12.5 to 150 (≈ 32.9 to 395 µM) |  | < 1 | < 1 | 1 to 3.5 (≈ 2.64 to 9.22 µM) | 12.5 to 150 (≈ 32.9 to 395 µM) | 12.5 to 150 (≈ 32.9 to 395 µM) | 3.5 to 12.5 (≈ 9.22 to 32.9 µM)
4 | CCc1c(-c2ccc3c(c2)cc2n3CCC2N2CCCC2)[nH]c(=O)c(C(=O)O)c1O (stereo not shown) [Cpd 304, 5-ethyl-4-hydroxy-2-oxo-6-(1-(pyrrolidin-1-yl)-2,3-dihydro-1H-pyrrolo[1,2-a]indol-7-yl)-1,2-dihydropyridine-3-carboxylic acid] | < 1 | 12.5 to 150 (≈ 30.7 to 368 µM) | < 1 | 3.5 to 12.5 (≈ 8.59 to 30.7 µM) | 12.5 to 150 (≈ 30.7 to 368 µM) | 12.5 to 150 (≈ 30.7 to 368 µM) |  |  | 1 to 3.5 (≈ 2.45 to 8.59 µM) | 3.5 to 12.5 (≈ 8.59 to 30.7 µM) | 12.5 to 150 (≈ 30.7 to 368 µM) | 12.5 to 150 (≈ 30.7 to 368 µM) | 12.5 to 150 (≈ 30.7 to 368 µM)
5 | Cc1c(-c2ccc3c(c2)cc(CNC2CCC2)n3C)[nH]c(=O)c(C(=O)O)c1O [Cpd 354, 6-(2-((cyclobutylamino)methyl)-1-methyl-1H-indol-5-yl)-4-hydroxy-5-methyl-2-oxo-1,2-dihydropyridine-3-carboxylic acid] | < 1 | 12.5 to 150 (≈ 32.8 to 393 µM) | 1 to 3.5 (≈ 2.62 to 9.18 µM) | < 1 | 3.5 to 12.5 (≈ 9.18 to 32.8 µM) | < 1 |  | < 1 | 1 to 3.5 (≈ 2.62 to 9.18 µM) | 1 to 3.5 (≈ 2.62 to 9.18 µM) | < 1 | 12.5 to 150 (≈ 32.8 to 393 µM) | 12.5 to 150 (≈ 32.8 to 393 µM)
6 | Cc1c(-c2ccc3c(c2)cc2n3CC(N)C2)[nH]c(=O)c(C(=O)O)c1O.Cl (stereo not shown) [Cpd 412, 6-(2-amino-2,3-dihydro-1H-pyrrolo[1,2-a]indol-7-yl)-4-hydroxy-5-methyl-2-oxo-1,2-dihydropyridine-3-carboxylic acid hydrochloride] | 1 to 3.5 | 12.5 to 150 | 3.5 to 12.5 | 1 to 3.5 | 3.5 to 12.5 | 3.5 to 12.5 |  | 1 to 3.5 | 12.5 to 150 | 3.5 to 12.5 | 12.5 to 150 | 12.5 to 150 | 12.5 to 150
7 | CNC1Cc2cc3cc(-c4[nH]c(=O)c(C(=O)O)c(O)c4C)ccc3n2C1.Cl (stereo not shown) [Cpd 415, 4-hydroxy-5-methyl-6-(2-(methylamino)-2,3-dihydro-1H-pyrrolo[1,2-a]indol-7-yl)-2-oxo-1,2-dihydropyridine-3-carboxylic acid hydrochloride] | 1 to 3.5 | 12.5 to 150 | 3.5 to 12.5 | < 1 | 3.5 to 12.5 | 1 to 3.5 |  | 1 to 3.5 | 12.5 to 150 | 3.5 to 12.5 | 3.5 to 12.5 | 12.5 to 150 | 12.5 to 150
8 | CCc1c(-c2ccc3cc[nH]c3c2)[nH]c(=O)c(C(=O)O)c1O [Cpd 423, 5-ethyl-4-hydroxy-6-(1H-indol-6-yl)-2-oxo-1,2-dihydropyridine-3-carboxylic acid] | < 1 | 1 to 3.5 (≈ 3.35 to 11.7 µM) | < 1 | 1 to 3.5 (≈ 3.35 to 11.7 µM) | 3.5 to 12.5 (≈ 11.7 to 41.9 µM) | 1 to 3.5 (≈ 3.35 to 11.7 µM) |  | < 1 | < 1 | < 1 | 1 to 3.5 (≈ 3.35 to 11.7 µM) | 12.5 to 150 (≈ 41.9 to 503 µM) | 3.5 to 12.5 (≈ 11.7 to 41.9 µM)
